The values below come from publication PMC8953086, “Repurposing Avasimibe to Inhibit Bacterial Glycosyltransferases” (Pathogens, 2022).

Each structure is given as a SMILES string.

One assay deals with NleB (Citrobacter rodentium, UniProt A0A482PDI9). In words: biochemical.
Another assay deals with SseK1 (Salmonella enterica, UniProt A0A0H3NK84). As to the kind of experiment: biochemical.
Sequence of SseK1 (A0A0H3NK84 whole entry, looked up): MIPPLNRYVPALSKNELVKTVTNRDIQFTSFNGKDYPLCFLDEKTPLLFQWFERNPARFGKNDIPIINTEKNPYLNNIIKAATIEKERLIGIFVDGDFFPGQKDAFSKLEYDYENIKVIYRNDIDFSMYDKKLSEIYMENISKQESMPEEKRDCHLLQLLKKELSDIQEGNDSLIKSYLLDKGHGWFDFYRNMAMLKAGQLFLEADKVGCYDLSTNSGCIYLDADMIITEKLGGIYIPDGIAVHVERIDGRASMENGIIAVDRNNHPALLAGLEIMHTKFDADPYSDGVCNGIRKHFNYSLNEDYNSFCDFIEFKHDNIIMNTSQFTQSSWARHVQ

Sequence of NleB (A0A482PDI9 whole entry, looked up): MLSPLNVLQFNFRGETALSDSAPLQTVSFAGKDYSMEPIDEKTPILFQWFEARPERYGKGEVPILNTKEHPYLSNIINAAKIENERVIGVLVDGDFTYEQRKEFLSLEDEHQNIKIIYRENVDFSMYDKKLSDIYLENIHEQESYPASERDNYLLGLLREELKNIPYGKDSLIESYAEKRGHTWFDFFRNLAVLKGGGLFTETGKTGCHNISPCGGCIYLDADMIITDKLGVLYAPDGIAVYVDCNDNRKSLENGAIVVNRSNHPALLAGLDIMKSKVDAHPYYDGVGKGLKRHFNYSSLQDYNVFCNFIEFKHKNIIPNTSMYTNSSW

Usually IC50 stands for the concentration needed to halve the response being measured. A low value points to inhibition by little substance. `CC(C)c1cc(C(C)C)c(CC(=O)NS(=O)(=O)Oc2c(C(C)C)cccc2C(C)C)c(C(C)C)c1` [avasimibe]: the IC50 at NleB and on SseK1 was about 10 µM throughout.
